Our source for the GI50 and TGI values is PubChem BioAssay (NCI).

Each structure is given as a SMILES string.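 Growth conditions: 96-well plates. Treatment: test compound, 48 hours, 5 concentrations. Analysis: linear interpolation between bracketing concentrations; unreached endpoints set to highest concentration. The concentration for 50% growth inhibition is given as GI50. TGI denotes the concentration required for complete inhibition of growth.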

Test systems include HS 578T breast; KM12 colon; M14 melanoma; OVCAR-3 ovarian; RXF 393 renal; SF-268 CNS; SR leukemia; UO-31 renal.
Common to all, as to assay: NCI tumour cell line growth inhibition, 48 h

With `NC(N)=N/N=C/c1cccc(Cl)c1Cl`, the GI50 with HS 578T breast is 12.2 µM; in the test on KM12 colon, 2.17 µM; with M14 melanoma, 1.98 µM; in the test on OVCAR-3 ovarian, 4.55 µM; with RXF 393 renal, 4.75 µM; in the test on SF-268 CNS, 11.8 µM. The GI50 in the test with SR leukemia was 2.72 µM; with UO-31 renal, 10.1 µM. Besides, the TGI in the test on HS 578T breast came to 34.9 µM; in the test with KM12 colon, 4.91 µM; with M14 melanoma it was 4.04 µM; with OVCAR-3 ovarian, 14.9 µM; in the test on RXF 393 renal, 18.3 µM; in the test on SF-268 CNS, 25.5 µM. In addition, the figures for the TGI in the test with SR leukemia and with UO-31 renal were 11.2 µM and 22.7 µM, respectively.
Turning to `COc1ccc(NC(=O)c2sc3nc(C)c(C(O)c4ccc(OC)cc4)cc3c2N)cc1` (stereo not drawn), the GI50 in the test with HS 578T breast was 0.821 µM; with KM12 colon, 0.76 µM; with M14 melanoma, 1 µM; in the test on OVCAR-3 ovarian, 0.365 µM; with RXF 393 renal, 0.411 µM; in the test with SF-268 CNS, 2.28 µM. Moreover, the figures for the GI50 with SR leukemia and with UO-31 renal were 0.256 µM and 2.85 µM, respectively. The TGI in the test with HS 578T breast is 4.09 µM; in the test on KM12 colon, > 50 µM; with M14 melanoma, > 50 µM; in the test on OVCAR-3 ovarian it was 5.31 µM; in the test on RXF 393 renal, 2.99 µM; in the test with SF-268 CNS it was > 50 µM. Further, the TGI in the test with SR leukemia and with UO-31 renal was > 50 µM in each case.
`COc1ccccc1CNC(=O)C1c2ccccc2C(=O)N(CC(C)C)C1c1cccs1` (stereo not drawn): the GI50 with HS 578T breast is 16 µM; in the test with KM12 colon, 24.8 µM; with M14 melanoma, 19.1 µM; with OVCAR-3 ovarian, 25.7 µM; in the test with RXF 393 renal, 17.3 µM; in the test on SF-268 CNS, 30.6 µM. Besides, the results for the GI50 in the test on SR leukemia and with UO-31 renal were 13.5 µM and 17.7 µM, respectively. Also, the TGI with HS 578T breast is 60.1 µM; with KM12 colon, > 100 µM; in the test with M14 melanoma it was 52.7 µM; with OVCAR-3 ovarian it was 89.1 µM; with RXF 393 renal, 48 µM; with SF-268 CNS, > 100 µM. In addition, the TGI with SR leukemia was determined as 74.7 µM; in the test with UO-31 renal it was 72.5 µM.
For the molecule `O=[N+]([O-])c1cc(Cl)cc2c1nc(NCCO)c1ccccc12`, the TGI is > 100 µM in the test on HS 578T breast; 93.7 µM in the test on KM12 colon; > 100 µM with M14 melanoma; > 100 µM with OVCAR-3 ovarian; 19.3 µM in the test with RXF 393 renal; > 100 µM with SF-268 CNS. In addition, the TGI with SR leukemia is 7.09 µM; in the test with UO-31 renal, > 100 µM.
For the molecule `c1ccc2cc(OCC3CO3)c(OCC3CO3)cc2c1` (stereo not drawn), the TGI came to 20.3 µM with HS 578T breast; 26.7 µM with KM12 colon; 13.3 µM in the test with M14 melanoma; 27.9 µM in the test on OVCAR-3 ovarian; 1.47 µM with RXF 393 renal; 13.3 µM with SF-268 CNS. For the same molecule, the TGI with SR leukemia came out at 2.15 µM; with UO-31 renal, 21.8 µM.
As to `CC(C)=CCC/C(C)=C/CC/C(=C/COP(=O)(OCc1ccc([N+](=O)[O-])o1)N(C)CCCCCl)CC=C(C)C` (stereo not drawn), the GI50 with KM12 colon was 2.98 µM; with M14 melanoma it was 2.62 µM; in the test on OVCAR-3 ovarian it was 11.6 µM; with RXF 393 renal, 6.03 µM; in the test with SF-268 CNS, 15.1 µM; in the test with SR leukemia, 3.02 µM. For the same molecule, the GI50 with UO-31 renal was 5.56 µM. The TGI in the test on KM12 colon is 17.1 µM; in the test with M14 melanoma, 10.2 µM; in the test on OVCAR-3 ovarian, 29.4 µM; with RXF 393 renal, 22.8 µM; with SF-268 CNS, 29.9 µM; in the test on SR leukemia, > 100 µM. For the same molecule, the TGI in the test with UO-31 renal was 18.2 µM.
Turning to `O=C(N=Nc1c(O)[nH]c2c(Cl)cc(Cl)cc12)c1ccncc1`, the TGI is > 100 µM in the test with HS 578T breast; > 100 µM with KM12 colon; > 100 µM in the test with M14 melanoma; 37.5 µM with OVCAR-3 ovarian; 61.4 µM in the test on RXF 393 renal; 69.2 µM with SR leukemia. The TGI with UO-31 renal was > 100 µM.
`COc1cc(/C=C2\CC3C4CC=C5C[C@@H](N6CCCC6)CC[C@]5(C)C4CC[C@]3(C)[C@H]2OC(C)=O)ccc1OCCN1CCCCC1` (stereo partly drawn): the GI50 is 0.54 µM in the test on KM12 colon; 1.58 µM in the test on M14 melanoma; 1.64 µM with OVCAR-3 ovarian; 1.63 µM with RXF 393 renal; 2.26 µM with SF-268 CNS; 1.46 µM with UO-31 renal. The TGI was 1.4 µM with KM12 colon; 3 µM in the test with M14 melanoma; 3.34 µM in the test with OVCAR-3 ovarian; 3.64 µM in the test on RXF 393 renal; 5.6 µM with SF-268 CNS; 2.83 µM in the test on UO-31 renal.
On to `COc1ccc(NC(=O)Nc2ccc(Nc3nc(C)cc(Nc4ccc(C)cc4)n3)cc2)cc1`, for which the GI50 in the test with HS 578T breast is 2.22 µM; in the test with M14 melanoma, 1.77 µM; in the test with OVCAR-3 ovarian, 1.35 µM; in the test on RXF 393 renal, 1.61 µM; in the test with SF-268 CNS it was 2.16 µM; in the test on UO-31 renal it was 1.48 µM. Besides, the TGI in the test on HS 578T breast stood at 5.4 µM; with M14 melanoma, 3.72 µM; in the test on OVCAR-3 ovarian it was 2.81 µM; with RXF 393 renal, 3.12 µM; in the test with SF-268 CNS, 5.07 µM; with UO-31 renal, 2.82 µM.
In the case of `COc1cc(OC)c(OC)cc1/C=C1\C=Cc2ccccc21`, the TGI in the test on HS 578T breast is 96.2 µM; in the test on KM12 colon, 41.8 µM; with RXF 393 renal it was 49.7 µM; in the test with SF-268 CNS, > 100 µM; with SR leukemia, > 100 µM; in the test on UO-31 renal, 64.2 µM.
Take `COc1cc(-c2nc(SCC(=O)Nc3ccc(C(C)=O)cc3)[nH]c(=O)c2C#N)cc(OC)c1OC`: the GI50 is 63.6 µM in the test on KM12 colon; 37.4 µM with M14 melanoma; 34 µM with OVCAR-3 ovarian; 40.1 µM in the test on RXF 393 renal; 68.7 µM in the test on SF-268 CNS; 19 µM with SR leukemia. In the test on UO-31 renal, the GI50 was 36.6 µM. In addition, the TGI in the test with KM12 colon, in the test on M14 melanoma, with OVCAR-3 ovarian, with RXF 393 renal, in the test with SF-268 CNS and with SR leukemia was > 100 µM throughout. Also, in the test with UO-31 renal, the TGI was > 100 µM.
Turning to `Cc1[nH]nc2c1N=C(c1ccccc1F)c1cc(C#N)ccc1N2`, the GI50 is 0.122 µM in the test with HS 578T breast; 0.111 µM in the test with KM12 colon; 0.0887 µM in the test with OVCAR-3 ovarian; 0.105 µM in the test on RXF 393 renal; 0.316 µM in the test with SF-268 CNS; 0.0641 µM with SR leukemia. In addition, the GI50 in the test on UO-31 renal was 0.435 µM. In addition, the TGI in the test with HS 578T breast is 3.83 µM; with KM12 colon, 6.48 µM; in the test on OVCAR-3 ovarian, 8.31 µM; in the test with RXF 393 renal it was 1.99 µM; in the test with SF-268 CNS, 5.8 µM; in the test on SR leukemia, > 18 µM. In addition, in the test with UO-31 renal, the TGI is 4.01 µM.
